Results as given in patent US5488051A, “Substituted 5,6-dihydro-5-oxo-1,4-dithiino-(2,3-d)-pyridazine-2,3-dicarbonitriles, compositions containing them and their use as antimicrobials” (The Dow Chemical Company, priority 1994, dated 1996).
Converted amounts (≈) assume the structure as drawn. Read-outs that look alike come from different tables or passages of the source.

What was measured:
Bacillus subtilis (Bs) = test: MIC for Bacillus subtilis, nutrient agar; format: cell-based, Bacillus subtilis ATCC 8473; conditions: 30° C., 48 hours, read-out: Minimum Inhibitory Concentration (MIC), Bs
In short: (§1)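 Test compound is mixed into cooled (48° C) nutrient agar at fixed ppm steps up to 500 ppm, at neutral and alkaline pH. After 24 h drying, plates receive replicator spots of bacterial suspension at 10^8 CFU/mL and are incubated 48 h at 30° C before scoring for growth.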

Salmonella choleraesuis = test: MIC for Salmonella choleraesuis, nutrient agar; format: cell-based, Salmonella choleraesuis ATCC 10708; conditions: Salmonella enterica, 30° C., 48 hours, read-out: Minimum Inhibitory Concentration (MIC), SC
In short: as §1

[1] = test system: Staphylococcus aureus (Sa); test: MIC for Staphylococcus aureus, nutrient agar; format: cell-based, Staphylococcus aureus ATCC 6538; conditions: 30° C., 48 hours, read-out: Minimum Inhibitory Concentration (MIC), Sa
In short: as §1

Aspergillus niger (An) = test: MIC for Aspergillus niger, malt yeast agar; format: cell-based, Aspergillus niger ATCC 16404; conditions: malt yeast agar; 30° C., 72 hours for fungi; read-out: Minimum Inhibitory Concentration (MIC), An
In short: (§2)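 Agar dilution on malt yeast agar with compound (from 1% acetone/water solution) at final 0, 1.0, 2.5, 5, 10, 25, 50, 100, 250, 500 ppm. Plates inoculated by replicator with saline suspensions (1:9 diluted) of 7-day cultures; incubated at 30 °C, read at 48 h for yeast and 72 h for fungi.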

Saccharomyces cerevisiae = test: MIC for Saccharomyces cerevisiae, malt yeast agar; format: cell-based, Saccharomyces cerevisiae ATCC 4105; conditions: malt yeast agar, 30° C., 48 hours for yeast, read-out: Minimum Inhibitory Concentration (MIC), Sc
In short: as §2

marine organism growth = test: Marine antifouling rating of coated test panels exposed to marine environment; design: species or system marine organisms; conditions: scale 10 (completely free of growth) to 0 (completely covered); for Marine Antifouling Rating, 10 Week Test, Bottom Panel / Marine Antifouling Rating, 10 Week Test, Top Panel: 10 weeks; for Marine Antifouling Rating, 10 Week Test, Top Panel: untreated Control 7
Procedure: Test panels are prepared from clear, rigid polyvinyl chloride film that is 0.381×10^-3 m thick and has one textured surface. The test panels are 0.1524 m by 0.1524 m squares that have 0.00635 m holes punched at corners on 0.127 m centers. A 0.102 square template, with a 0.067 m diameter hole at the center, is attached to the center of the textured surface of the test panels.
A candidate marine antifoulant compound (1.0 g) is stirred into a resinous latex binder (9.0 g). A portion of the compound/binder mixture (1.5 g) is added to the center of the test panel and uniformly spread over the circular area inside the template.
Water is added dropwise as needed to properly spread the compound/binder mixture. The template prevents the compound/binder mixture from spreading beyond the uncovered area. The test panel is allowed to sit for between ten to thirty minutes until the edge of the spread compound/binder mixture has dried. The template is then removed. The test panel is then allowed to dry for 8 to 12 hours at room temperature.
Two test panels are prepared for each candidate marine antifoulant compound. Two control test panels are also prepared by only treating with the resinous latex binder. One test panel of each candidate marine […] compound is attached over a white background to the topside of an exposure support apparatus. The second test panel is attached over a black background to the underside of the exposure support apparatus. The exposure support apparatus is placed horizontally 0.0254 m under a marine surface with the white background topside facing up. The exposure support apparatus is exposed to the marine environment for both 10 and 20 weeks during which time the control test panels become substantially covered with mature marine organism growth on both the topside and underside exposures.
After being removed from the exposure support apparatus, each test panel is inspected and rated for marine organism growth on both the treated and untreated areas of the test panel. The marine organisms present on the treated and untreated areas are noted. The presence of algae spores and bacterial slime are noted but not included in rating each test panel. The test panels are rated on a scale from 10 (representing completely free of marine organism growth) to 0 (representing completely covered with marine organism growth).
In Table V, the marine antifouling rating values for some of the compounds listed in Table I are set forth, as well as the ratings for control panels (using no marine antifouling compound, and referred to in Table V as "Control") and panels using a standard commercial marine antifouling compound (with copper (I) oxide (Cu2 O) as the active agent and referred to in Table V as "STANDARD II").

[2] = bottom panel (black background), untreated Control 1

SMILES | MIC (Bacillus subtilis (Bs); pH 6.8, nutrient agar) [µg/mL] | MIC (Bacillus subtilis (Bs); pH 8.2, nutrient agar) [µg/mL] | MIC (Salmonella choleraesuis; pH 6.8, nutrient agar) [µg/mL] | MIC (Salmonella choleraesuis; pH 8.2, nutrient agar) [µg/mL] | MIC ([1]; pH 6.8, nutrient agar) [µg/mL] | MIC ([1]; pH 8.2, nutrient agar) [µg/mL] | MIC (Aspergillus niger (An)) [µg/mL] | MIC (Saccharomyces cerevisiae) [µg/mL] | Marine Antifouling Rating, 10 Week Test, Bottom Panel (marine organism growth; [2]) | Marine Antifouling Rating, 10 Week Test, Top Panel (marine organism growth; top panel (white background)) | Marine Antifouling Rating, 20 Week Test, Bottom Panel (marine organism growth; 20 weeks, bottom panel (black background), untreated Control 1) | Marine Antifouling Rating, 20 Week Test, Top Panel (marine organism growth; 20 weeks, top panel (white background), untreated Control 1)
Cc1ccc(-n2ncc3c(c2=O)SC(C#N)=C(C#N)S3)cc1 [B, 5,6-dihydro-6-(4-methylphenyl)-5-oxo-1,4-dithiino-(2,3-d)-pyridazine-2,3-dicarbonitrile] | < 10 | 25 (≈ 77.1 µM) | > 500 | > 500 | < 10 | 25 (≈ 77.1 µM) | 25 (≈ 77.1 µM) | < 10 | 4 | 10 | 1 | 1
N#CC1=C(C#N)Sc2c(cnn(-c3ccc(Br)cc3)c2=O)S1 [C, 5,6-dihydro-6-(4-bromophenyl)-5-oxo-1,4-dithiino-(2,3-d)-pyridazine-2,3-dicarbonitrile] | < 10 | 100 (≈ 257 µM) | 100 (≈ 257 µM) | > 500 | > 500 | > 500 | 10 (≈ 25.7 µM) | 10 (≈ 25.7 µM) | 1 | 7 |  | 
